Assay results published in patent US11213510B2, “Thioindirubins” (City of Hope, priority 2017, dated 2022).
Read-outs that look alike come from different tables or passages of the source.

What was measured:
Format in all cases: cell-based
[1] = test system: DU145 prostate cancer cell line; assay: MTS cell viability assay, DU145; conditions: for Cell viability (% control) DU145 1 μM / Cell viability (% control) DU145 10 μM / Cell viability at 10 μM (% control) DU145: 48 h; for Cell viability (% control) DU145 1 μM / Cell viability (% control) DU145 10 μM / IC50: MTS; for IC50: DU145, 48 h, read-out: IC50 values (μM) against prostate cancer and melanoma DU145 (prostate cancer); for Cell viability at 10 μM (% control) DU145: MTS (Table 2)
From the text: (§1) To determine if novel synthetic thioindirubins have antitumor activities, we performed an MTS cell viability assay. Initially, we screened them at […] final concentration with A2058 melanoma and DU145 prostate cancer cell lines. Then, compound 9b and compound 7e were selected to determine IC50 values against prostate cancer, melanoma and lung cancer cells, including DU145, A2058, A549, H513, H2461, H358, DMS114, H2596, DMS273, H69, H526 and DMS114 cell lines. For the viability assay, 5000 cells/well were seeded in 96-well plates, incubated overnight at 37° C. in 5% CO2 and then exposed to […] of compounds or in a dose-dependent manner for 48 h. After 48 h treatment with compounds, MTS dye (20 μL/well) was added to 96-well plates. Viable cell numbers were determined by tetrazolium conversion to its formazan dye. Absorbance was measured at 490 nm using the BMG LABTECH plate reader. Dimethyl sulfoxide (DMSO) was used as the vehicle control. Each experiment was conducted in triplicate. IC50 values were determined using CalcuSyn software (Biosoft).

A2058 melanoma cell line = assay: MTS cell viability assay, A2058; conditions: for Cell viability (% control) A2058 1 μM / Cell viability (% control) A2058 10 μM / Cell viability at 10 μM (% control) A2058: 48 h; for Cell viability (% control) A2058 1 μM / Cell viability (% control) A2058 10 μM / IC50: MTS; for IC50: A2058, 48 h, read-out: IC50 values (μM) against prostate cancer and melanoma A2058 (melanoma); for Cell viability at 10 μM (% control) A2058: MTS (Table 2)
From the text: as §1

[2] = test system: H2596 non-small lung cancer cell line; assay: MTS cell viability assay, H2596; conditions: H2596, 48 h, read-out: IC50 values (μM) against non-small lung cancer H2596
From the text: as §1

[3] = test system: H513 non-small lung cancer cell line; assay: MTS cell viability assay, H513; conditions: H513, 48 h, read-out: IC50 values (μM) against non-small lung cancer H513
From the text: as §1

[4] = test system: H69 small lung cancer cell line; assay: MTS cell viability assay, H69; conditions: H69, 48 h, read-out: IC50 values (μM) against small lung cancer H69
From the text: as §1

[5] = test system: DMS273 small lung cancer cell line; assay: MTS cell viability assay, DMS273; conditions: read-out: IC50 values (μM) against small lung cancer DMS273
From the text: as §1

[6] = test system: H2461 non-small lung cancer cell line; assay: MTS cell viability assay, H2461; conditions: H2461, 48 h, read-out: IC50 values (μM) against non-small lung cancer H2461
From the text: as §1

[7] = test system: H358 non-small lung cancer cell line; assay: MTS cell viability assay, H358; conditions: read-out: IC50 values (μM) against non-small lung cancer H358
From the text: as §1

[8] = test system: H526 small lung cancer cell line; assay: MTS cell viability assay, H526; conditions: read-out: IC50 values (μM) against small lung cancer H526
From the text: as §1

[9] = test system: A549 non-small lung cancer cell line; assay: MTS cell viability assay, A549; conditions: A549, 48 h, read-out: IC50 values (μM) against non-small lung cancer A549
From the text: as §1

[10] = test system: DMS114 small lung cancer cell line; assay: MTS cell viability assay, DMS114; conditions: read-out: IC50 values (μM) against small lung cancer DMS114
From the text: as §1

[11] = test system: lung cancer, prostate cancer and melanoma cell lines; assay: MTS cell viability assay, cancer cell line panel (summary statement); conditions: some cell lines, not specified; read-out: IC50 against some cell lines (antitumor activities)
Procedure: IC50 values (μM) of compound 9b were determined using lung cancer cell lines including non-small lung cancer cell lines (Table 3: A549, H513, H2461, H358, ad H2596) and small lung cancer cell lines (Table 4: DMS273, H69, H526, and DMS114), prostate cancer (Table 5: DU145), melanoma (Table 5: A2058).
as §1

| SMILES | Cell viability (% control) DU145 1 μM [1] [% control] | Cell viability (% control) DU145 10 μM ([1]; DU145, 10 μM) [% control] | Cell viability (% control) A2058 1 μM (A2058 melanoma cell line) [% control] | Cell viability (% control) A2058 10 μM (A2058 melanoma cell line; A2058, 10 μM) [% control] | also measured |
| --- | --- | --- | --- | --- | --- |
| O=C1Nc2ccccc2/C1=C1/Sc2ccccc2C1=O [Compound 6a, (2′Z)-Thioindirubin] | >100 | 90 | 99 | 77 |  |
| O=C1Sc2ccccc2/C1=C1/Nc2ccc(Br)cc2C1=O [Compound 6b, (2′Z)-5′-Bromothioindirubin] | >100 | >100 | 97 | 100 |  |
| O=C1Sc2ccccc2/C1=C1/Nc2cc(Cl)ccc2C1=O [Compound 6c, (2′Z)-6′-Chlorothioindirubin] | 80 | 82 | 84 | 96 |  |
| N#Cc1ccc2c(c1)C(=O)/C(=C1/C(=O)Sc3ccccc31)N2 [Compound 6d, (2′Z)-5′-Cyanothioindirubin] | >100 | 95 | 95 | 87 |  |
| COC(=O)c1ccc2c(c1)C(=O)/C(=C1/C(=O)Sc3ccccc31)N2 [Compound 6e, (2′Z)-5′-(Methoxycarbonyl)thioindirubin] | >100 | >100 | 92 | 94 |  |
| COC(=O)c1ccc2c(c1)S/C(=C1\C(=O)Nc3ccccc31)C2=O [Compound 6f, (2′Z)-6′-(Methoxycarbonyl)thioindirubin] | 99 | 93 | 93 | >100 |  |
| Cc1ccc2c(c1)C(=O)/C(=C1/C(=O)Nc3ccccc31)S2 [Compound 6g, (2′Z)-5′-Methylthioindirubin] | 94 | >100 | >100 | 97 |  |
| O=C1Sc2ccccc2/C1=C1/Nc2cc(Cl)ccc2/C1=N\O [Compound 7c, (2′Z,3′E)-6′-Chlorothioindirubin-3′-oxime] | >100 | 33 | 86 | 27 |  |
| N#Cc1ccc2c(c1)C(=N\O)/C(=C1/C(=O)Nc3ccccc31)S2 [Compound 7d, (2′Z,3′E)-5′-Cyanothioindirubin-3′-oxime] | >100 | 93 | 89 | 99 |  |
| COC(=O)c1ccc2c(c1)C(=N\O)/C(=C1/C(=O)Nc3ccccc31)S2 [Compound 7e, (2′Z,3′E)-5′-(Methoxycarbonyl)thioindirubin-3′-oxime] | >100 | 88 | 90 | 68 | IC50 [2]: > 10 µM; IC50 [3]: > 10 µM; IC50 [1]: > 10 µM; IC50 [4]: > 10 µM; IC50 ([5]; DMS273, 48 h): > 10 µM; IC50 [6]: > 10 µM; IC50 (A2058 melanoma cell line): > 10 µM; IC50 ([7]; H358, 48 h): 7.7 µM; IC50 ([8]; H526, 48 h): > 10 µM; IC50 [9]: > 10 µM; IC50 ([10]; DMS114, 48 h): > 10 µM |
| COC(=O)c1ccc2c(c1)NC(=C1\C(=O)Sc3ccccc31)/C2=N/O [Compound 7f, (2′Z,3′E)-6′-(Methoxycarbonyl)thioindirubin-3′-oxime] | >100 | >100 | 92 | >100 |  |
| Cc1ccc2c(c1)C(=N\O)/C(=C1/C(=O)Nc3ccccc31)S2 [Compound 7g, (2′Z,3′E)-5′-Methylthioindirubin-3′-oxime] | 88 | 79 | 84 | 88 |  |
| O=C1Nc2ccccc2/C1=C1/Sc2ccccc2/C1=N\OCCN1CCNCC1 [Compound 9a, (2′Z,3′E)-Thioindirubin-3′-[O-(2-(piperazin-1-yl)ethyl)]oxime] |  |  |  |  | Cell viability at 10 μM (% control) DU145 ([1]; DU145, 10 μM): 82 % control; Cell viability at 10 μM (% control) A2058 (A2058 melanoma cell line; A2058, 10 μM): 91 % control |
| COC(=O)c1ccc2c(c1)C(=N\OCCN1CCNCC1)/C(=C1/C(=O)Sc3ccccc31)N2 [Compound 9b, (2′Z,3′E)-5′-(Methoxycarbonyl)thioindirubin-3′-[O-(2-(piperazin-1-yl)ethyl)]oxime] |  |  |  |  | IC50 [2]: 1.02 µM; IC50 [3]: 1.6 µM; viabilities of these cells at 10 μM concentration (DU145), in words ([1]; DU145, 10 μM): extremely reduced viabilities; Cell viability at 10 μM (% control) DU145 ([1]; DU145, 10 μM): 17 % control; IC50 ([1]; Homo sapiens, DU-145): 2.53 µM; IC50 [4]: 0.78 µM; IC50 ([5]; Homo sapiens, DMS-273, DMS273, 48 h): 6.1 µM; IC50 [6]: 1 µM; viabilities of these cells at 10 μM concentration (A2058), in words (A2058 melanoma cell line; A2058, 10 μM): extremely reduced viabilities; Cell viability at 10 μM (% control) A2058 (A2058 melanoma cell line; A2058, 10 μM): 8 % control; IC50 (A2058 melanoma cell line; Homo sapiens): 1.07 µM; IC50 ([7]; Homo sapiens, NCI-H358, H358, 48 h): 2.4 µM; IC50 ([8]; Homo sapiens, NCI-H526, H526, 48 h): 1.7 µM; IC50 ([9]; Homo sapiens): 4.6 µM; IC50 [11]: ~1000 nM; IC50 ([10]; Homo sapiens, DMS-114, DMS114, 48 h): 1.13 µM |
| COC(=O)c1ccc2c(c1)C(=N\OCCN1CCOCC1)/C(=C1/C(=O)Nc3ccccc31)S2 [Compound 9c, (2′Z,3′E)-5′-(Methoxycarbonyl)thioindirubin-3′-[O-(2-(morpholino)ethyl)]oxime] |  |  |  |  | Cell viability at 10 μM (% control) DU145 ([1]; DU145, 10 μM): 101 % control; Cell viability at 10 μM (% control) A2058 (A2058 melanoma cell line; A2058, 10 μM): 70 % control |
